# Experimental data reported in patent US11352374B2 (University of Alaska Anchorage, priority 2015, dated 2022).
# “And” between values parts separate entries of the source, which are not always exact repeats. Equal values may be shown once. Read-outs that look alike come from different tables or passages of the source.
# How the values were obtained:
# [1] = CO released on auto-decomposition in water at 37° C., head space measured with CO meter; format: physicochemical; conditions: for % CO liberated at 24 hours by CO meter / CO release rate at 24 hours, CO meter, Autodecomposition / CO release (in words), CO meter: 37° C., 24 hours; for Rate of % CO released by CORCBs, Autodecomposition / Rate of % CO released by CORCB sodium salts, Autodecomposition: per 24 hour
# Procedure: (§1) A test to confirm that CO is one of the decomposition products from CORCBs is done by utilizing commercially available CO meter. Four mole of the compounds at the concentrations of 6-12 mg/mL in aqueous solution was incubated at 37° C. in a sealed vessel with 50 mL gas space. CO meter was used to read the concentration of liberated CO gas from the solution. Measurement by CO meter in ppm, after converting to the micromole amount, was used for calculating the percent CO released based on the original amount of compound.
# CO liberated from the molecules and coming out to the head space are detected and quantified by using CO meter.
# [2] = physchem; conditions: for CO release rate relative to CORCB-1: acid forms; for auto-decomposition of salts (in words): salts in D2O
# Procedure: The kinetics of compound decomposition was followed by observing the ratio of the amount of free amine group to the original compound using ^1H NMR. For instance, Hexamethylenetetramine carboxyborane (CORCB-1) in D2O at the concentration of 12 mg/mL was incubated at 37° C. in the standard NMR tube. ^1H NMR spectra were obtained at different time points to study the kinetics of product formation. […] The ratio of integrated peaks were used for determining the percent of each species present and plotted as a function of time to show the kinetics of auto-decomposition.
# ^1H, ^11B, and ^13C NMR spectra were recorded at different time points to study the kinetics as well as to observe transformation of CORCB-1 into the products.
# In order to determine whether CO is produced in physiological condition, CORCB acid forms were dissolved in aqueous solution at neutral pH. The solution was then subjected to incubation at 37° C. for extended period of time. For studies using NMR, CORCBs were dissolved in D2O. The kinetics of CORCB molecules breaking down to produce CO is determined by taking ^1H NMR spectra at various time points (FIG. 3).
# CORCB sodium and ammonium salts were also tested for decomposition by using ^1H NMR spectroscopy. Samples were set up as in Example 1 and rate of decomposition measured (FIG. 4).
# [3] = Solubility in water / D2O; conditions: water or D2O
# [4] = tested on: RAW264.7 cells; assay: Cytotoxicity / cell viability, Cell Titer Blue assay
# Procedure: To test the anti-inflammatory effect of CORCBs, mouse macrophage cells (RAW264.7) were used. 2×10^4 cells per well was seeded in 96-well plate with different concentrations of CORCBs. Cells were incubated in DMEM with 10% FBS at 37° C. and 5% CO2 for 24 hours. LPS (100 ng/mL) was then added and incubated for 4 additional hours. The media containing secreted inflammatory cytokines were collected and these cells were subjected to cell viability test to check their viability.
# Cytotoxicity of CORCBs was tested with RAW264.7 cells using Cell Titer Blue assay. In brief, cells were seeded at the density of 2×10^4 cells per well in 96-well plate with different concentrations of CORCBs. Cells were incubated in DMEM with 10% FBS at 37° C. and 5% CO2 for 24 hours. Cell Titer Blue reagent was added into the wells and incubated for 4 more hours in the normal cell growth conditions. The fluorescence signal of the converted reagent resulted from the viable cells was measured.
# [5] = tested on: fibroblast tumor cells (Hs 895.T) and normal fibroblast cells (Hs 895.Sk); conditions: human, 48 h, 1 mM
# Procedure: Cells were seeded at the density of 3×10^3 cells per well in 96-well plate with different concentrations of CORCBs in DMEM media without FBS, and incubated at 37° C. with 5% CO2 for 2 days.
# [6] = Decomposition (amine release) in the presence of H2O2 monitored by 1H NMR; format: physicochemical; conditions: for Decomposition rate at 24 hours, 1H NMR, With 1.5x H2O2: 1.5 equivalents H2O2, 37° C.
# Procedure: (§2) The two tested are the common ROS formed naturally in the cells—a non-radical hydrogen peroxide (H2O2) and Fenton reagent which is a more reactive hydroxyl radical (.OH) formed from Fe^2+ and H2O2. Four mole of CORCB compounds were mixed in an aqueous solution with ROS and incubated in a sealed vessel. At respective times, the head space air was injected into the meter to read the amount of CO produced. For analysis by NMR spectroscopy, the reaction mixture was prepared in NMR tube in D2O solvent and incubated for the amount of time indicated.
# The reaction with H2O2 is slow-acting, therefore, NMR spectroscopy can be used for monitoring the rate.
# [7] = CO released in the presence of Fenton reagent (hydroxyl radical), CO meter; format: physicochemical; conditions: per 5 minutes
# Procedure: as §1
# as §2, with “All amine carboxyboranes express a faster CO release rate when incubated with the reactive oxygen species. The” for “The”, “indicated. While some CORCBs have increased amount of CO produced when treated with 3 times equivalents of H2O2, CORCB-1 produces similar or less amount of CO. In every sample, either acid or salt form, the hydroxyl radical extracts the amount of CO to a much higher magnitude within a very short amount of time.” for “indicated.”
# [8] = CO released in the presence of H2O2, CO meter; format: physicochemical; conditions: for CO released with 3 equivalents H2O2: 3 equivalents H2O2, 12 hours at 37° C. (FIG. 9); for Rate of % CO released by CORCBs, With H2O2: H2O2 equivalents not given
# Procedure: as §1, §2
# [9] = tested on: normal human skin fibroblast cells (Hs 895.Sk)
# Procedure: This was tested by using a chemotherapy drug, imatinib, in normal human skin fibroblast cells (Hs 895.Sk). The cultures were treated with 20 μM and 40 μM concentration of imatinib as controls to see their toxicity. Samples with mixtures of CORCB-1 and imatinib were also incubated and cell viability was determined on 2, 4, and 6 days. Media was exchanged every 2 days with fresh reagents.
# [10] = 24 hours, 1.5 equivalents H2O2, 37° C.
smiles,measurement,setting,value
"CC(=O)Nc1ccc(OC(=O)B[N+]23CN4CN(CN(C4)C2)C3)cc1 [CORCB-1-TY, hexamethylenetetramine carboacetaminophenborane]",% CO liberated at 24 hours by CO meter,[1],12.3%
same,"CO release rate at 24 hours, CO meter, Autodecomposition",[1],12.30%
same,% decomposed at 24 hours by 1H NMR,[2]; 37° C.,11.3%
same,"Decomposition rate at 24 hours, 1H NMR, Autodecomposition",[2]; 37° C.,11.30%
same,time to decompose to completion,"[2]; D2O, 37° C.",12 days
"C[C@]12CC3CC([NH2+][BH2-]C(=O)O)(C1)C[C@@](C)(C3)C2 [CORCB-4, memantine carboxyborane]","CO release rate at 24 hours, CO meter, Autodecomposition",[1],not soluble
same,solubility in water,[3],low solubility in water
same,"Decomposition rate at 24 hours, 1H NMR, Autodecomposition",[2]; 37° C.,not soluble
"C1N2CN3CN1CN(C2)C3 [HMTA, hexamethylenetetramine, reference compound]",cytotoxicity at 2 mM (in words),"[4]; 2 mM, 24 hours",most cells losing viability
"NC12CC3CC(CC(C3)C1)C2 [Amantadine, reference compound]",cells left (viability),[5],about 20%
N.O=C(O)[BH2-][N+]12CN3CN(CN(C3)C1)C2 [NH4-CORCB-1],"CO release rate at 24 hours, CO meter, Autodecomposition",[1],28.70%
same,"Decomposition rate at 24 hours, 1H NMR, Autodecomposition",[2]; 37° C.,26.40%
O=C(O)B[n+]1ccccc1,"CO release rate at 24 hours, CO meter, Autodecomposition",[1],3%
same,"Rate of % CO released by CORCBs, Autodecomposition",[1],2.99 ± 0.06%
same,"Decomposition rate at 24 hours, 1H NMR, With 1.5x H2O2",[6],37.50%
same,"Rate of % CO released by CORCBs, With Fenton Reagent",[7],72.64 ± 2.57%
same,CO released with 3 equivalents H2O2,[8],about 10%
same,"CO release rate at 24 hours, CO meter, With 1.5x H2O2",[8]; [10],1.00%
same,"Rate of % CO released by CORCBs, With H2O2",[8]; per 24 hour,20.22 ± 0.35%
same,"Decomposition rate at 24 hours, 1H NMR, Autodecomposition",[2]; 37° C.,0.40%
same,CO release rate relative to CORCB-1,"[2]; D2O, 37° C.",much slower CO release rates than CORCB-1
"C[N+](C)(C)[BH2-]C(=O)O [CORCB-3, trimethylamine carboxyborane]","CO release (in words), CO meter",[1],negligible
same,"Rate of % CO released by CORCBs, Autodecomposition",[1],0.13 ± 0.01%
same,"Decomposition rate at 24 hours, 1H NMR, With 1.5x H2O2",[6],44.50%
same,cytotoxicity / cell growth (in words),"[4]; 0.5-10 mM (up to 10 mM), 24 hours",not toxic at the levels tested
same,cell viability after the TNF-α assay (in words),[4]; same cells as TNF-α assay,all cells remain viable
same,"Rate of % CO released by CORCBs, With Fenton Reagent",[7],76.64 ± 1.33%
same,CO released with 3 equivalents H2O2,[8],about 10%
same,"CO release rate at 24 hours, CO meter, With 1.5x H2O2",[8]; [10],2.70%
same,"Rate of % CO released by CORCBs, With H2O2",[8]; per 24 hour,18.73 ± 0.24%
same,CO release rate relative to CORCB-1,"[2]; D2O, 37° C.",much slower CO release rates than CORCB-1
same,rate of auto-decomposition,[2]; as stated in Example 10,~3 % per day
O=C([O-])[BH2-][N+]12CN3CN(CN(C3)C1)C2.[Na+] [Na-CORCB-1],% CO liberated at 24 hours by CO meter,[1],33%
same,"CO release rate at 24 hours, CO meter, Autodecomposition",[1],33.10%
same,"Rate of % CO released by CORCB sodium salts, Autodecomposition",[1],33.12 ± 0.33%
same,"Rate of % CO released by CORCB sodium salts, With Fenton Reagent",[7],41.61 ± 0.57%
same,"Rate of % CO released by CORCB sodium salts, With H2O2",[8],11.99 ± 0.19%
same,% decomposed at 24 hours by 1H NMR,[2]; 37° C.,33.1%
same,"Decomposition rate at 24 hours, 1H NMR, Autodecomposition",[2]; 37° C.,33.20%
"OO [H2O2, hydrogen peroxide, reference compound]",viability,"[4]; 1 mM, after 24 hours, untreated cells = 100%",44%
Cc1ccc(NC(=O)c2ccc(CN3CCN(C)CC3)cc2)cc1Nc1nccc(-c2cccnc2)n1 [imatinib],cell viability with 20 μM imatinib (in words),"[9]; 20 μM, by 6 days",killed
same,cell viability with 40 μM imatinib (in words),"[9]; 40 μM, at 4 days",lose their viability
CC12CC3CC(C)(C1)CC([NH2+][BH2-]C(=O)O)(C3)C2.N [NH4-CORCB-4],"CO release rate at 24 hours, CO meter, Autodecomposition",[1],not soluble
same,solubility in water,[3],soluble in water
same,"Decomposition rate at 24 hours, 1H NMR, Autodecomposition",[2]; 37° C.,12.80%
same,decomposition in 12 days,"[2]; ammonium salt, 12 days, 37° C.",about 13%
O=C([O-])[BH2-][n+]1ccccc1.[Na+] [Na-CORCB-2],"CO release rate at 24 hours, CO meter, Autodecomposition",[1],0.36%
same,"Rate of % CO released by CORCB sodium salts, Autodecomposition",[1],0.36 ± 0.13%
same,"Rate of % CO released by CORCB sodium salts, With Fenton Reagent",[7],43.46 ± 0.73%
same,"Rate of % CO released by CORCB sodium salts, With H2O2","[8]; sodium salts, per 24 hour",12.66 ± 0.21%
same,"Decomposition rate at 24 hours, 1H NMR, Autodecomposition",[2]; 37° C.,0.46%
CN1CCC[C@H]1c1ccc[n+](BC(=O)O)c1,% CO liberated at 24 hours by CO meter,[1],0.86%
same,"CO release (in words), CO meter",[1],much slower rate than the others
same,"CO release rate at 24 hours, CO meter, Autodecomposition",[1],0.86%
same,"Decomposition rate at 24 hours, 1H NMR, With 1.5x H2O2",[6],35.90%
same,"CO release rate at 24 hours, CO meter, With 1.5x H2O2",[8],0.50%
same,% decomposed at 24 hours by 1H NMR,[2]; 37° C.,1.0%
same,"Decomposition rate at 24 hours, 1H NMR, Autodecomposition",[2]; 37° C.,1%
same,CO release rate relative to CORCB-1,"[2]; D2O, 37° C.",much slower CO release rates than CORCB-1
C[N+](C)(C)[BH2-]C(=O)O [Na-CORCB-3],"CO release rate at 24 hours, CO meter, Autodecomposition",[1],not measurable
same,"Rate of % CO released by CORCB sodium salts, Autodecomposition",[1],0.14 ± 0.02%
same,"Rate of % CO released by CORCB sodium salts, With Fenton Reagent",[7],33.46 ± 0.90%
same,"Rate of % CO released by CORCB sodium salts, With H2O2","[8]; sodium salts, per 24 hour",7.41 ± 0.16%
same,"Decomposition rate at 24 hours, 1H NMR, Autodecomposition",[2]; 37° C.,not measurable
same,auto-decomposition of salts (in words),[2]; 37° C.,insignificant amounts of decomposition
"CC12CC3CC(C)(C1)CC([NH2+][BH2-]C(=O)[O-])(C3)C2.[Na+] [Na-CORCB-4, Memantinecarboxyborane sodium salt]","CO release rate at 24 hours, CO meter, Autodecomposition",[1],0.06%
same,% decomposition / free amine released by 1H NMR with H2O2,"[6]; 1.5 equivalents H2O2, 24 hours, sodium salt",96.4% and ~100%
same,"Decomposition rate at 24 hours, 1H NMR, With 1.5x H2O2",[6],96.40%
same,solubility in water,[3],soluble in water
same,% CO produced by CO meter with H2O2,"[8]; 1.5 equivalents H2O2, 24 hours",1.6%
same,"CO release rate at 24 hours, CO meter, With 1.5x H2O2",[8]; [10],1.60%
same,"Decomposition rate at 24 hours, 1H NMR, Autodecomposition",[2]; 37° C.,not measurable
same,auto-decomposition of salts (in words),"[2]; 37° C., listed as Sodium salt of CORCB-4, sodium salt",insignificant amounts of decomposition
same,auto-decomposition of salts (in words),"[2]; 37° C., listed as sodium salt of CORCB-4, sodium salt",does not decompose in measurable amount
N.O=C(O)[BH2-][n+]1ccccc1 [NH4-CORCB-2],"CO release rate at 24 hours, CO meter, Autodecomposition",[1],not measurable
same,"Decomposition rate at 24 hours, 1H NMR, Autodecomposition",[2]; 37° C.,0.03%
